Converted amounts (≈) assume the structure as drawn. “And” between values parts separate entries of the source, which are not always exact repeats. Equal entries are not always repeated. Where two headings read alike, the source gives them in different places.
Key:
[1] = cited from earlier work
[2] = cited from earlier work; for Micelles stable (Daptomycin: and biologically active): at 25° C.
[3] = in vivo; cited from earlier work
[4] = Loading of Ptx into antibiotic micelles, quantified by HPLC; assay type: physicochemical; details: for Maximum load / loading capacity: Ptx or Dtx in micelles; for Ptx loaded (%): 30 minutes, Teicoplanina 100 mg/ml, Ptx added 5 mg; for Ptx in Teicoplanin micelles: Teicoplanin 200 mg/ml
Procedure: Samples with 400 mg of teicoplanin were dissolved in 2 ml of distilled water at pH 5.5 or in 2 ml of phosphate buffer solution of 20 mM at pH 6, with gentle stirring in order to obtain full dissolution. The solution was allowed to stand for at least 4 hours at 4° C. A 0.5 ml aliquot was incubated with 25 μl of DMSO having increasing amounts of Paclitaxel (Ptx) in order to reach the following final concentrations: 1 mg/ml, 5 mg/ml, 10 mg/ml and 20 mg/ml.
The solutions were incubated at 25° C. for at least 4 hours and then centrifuged at 15,000×g for 10 minutes to remove the potential insoluble Ptx that had not encapsulated in teicoplanin micelles. Finally, in order to remove the remaining DMSO, the samples were dialyzed with a phosphate buffer solution of 20 mM at pH 6 for 12 hours. The quantification of Ptx introduced into teicoplanin micelles was carried out by using HPLC.
Ptx is loaded into teicoplanin micelles at a concentration of 5 mg/ml, according to the description of Example 1, but for 30 minutes at 4° C., 25° C. and 37° C. After incubation, the samples were centrifuged at 15,000×g for 10 minutes and they were also dialyzed in distilled water for 12 hours at 4° C. Finally, the amount of Ptx introduced into the teicoplanin micelle in a soluble way was quantified by HPLC. […] The load in all conditions was higher than 90%.

[5] = Particle size of micelles by dynamic light scattering (DLS); assay type: physicochemical; details: for Diameter of micelles: comparative study, dynamic light scattering
Source text: Determining Particle Size of Teico, Teico-Ptx and Teico-PTX-Alb Micelles by Dynamic Light Scattering (DLS)

[6] = cited from earlier work; remark: listed apart in the source
[7] = Solubility in aqueous medium; assay type: physicochemical
HEP-2 = test: In vitro cytotoxic activity in tumor cell culture (MTT test); assay type: cell-based; details: for Cell Death after 24 Hours of Treatment: HEP-2, MTT
Procedure: Tumor cells, such as HEP-2, were incubated in MEM medium having fetal bovine serum by 2% (Natocor-Villa Carlos Paz—Cordoba—Argentina) in a CO2 incubator by 5% CO2, at confluence. Different concentrations of the compositions mentioned below were added to the cell culture: […]

[8] = Dialysis experiments on Teicoplanin micelles; assay type: physicochemical; details: after 48 hours of dialysis
Procedure: In fact, in dialysis experiments, it was shown a loss of about 25% of molecules of Teicoplanin after 48 hours of dialysis, while for the Teico-Ptx complex is was shown a loss of about 5 to 8%.

[9] = Loading of Ptx into antibiotic micelles, quantified by HPLC; assay type: physicochemical; details: Teicoplanin 200 mg/ml; Ptx concentration 2.5 mg/ml
[10] = Critical micelle concentration (CMC); assay type: physicochemical
[11] = aqueous medium with teicoplanin micelles, aqueous with cosolvent or surfactant or cyclodextrin
[12] = aqueous medium without micelles

## CCCCCCCCCC(=O)N[C@@H](Cc1c[nH]c2ccccc12)C(=O)N[C@H](CC(N)=O)C(=O)N[C@@H](CC(=O)O)C(=O)N[C@@H]1C(=O)NCC(=O)N[C@@H](CCCN)C(=O)N[C@@H](CC(=O)O)C(=O)N[C@H](C)C(=O)N[C@@H](CC(=O)O)C(=O)NCC(=O)N[C@H](CO)C(=O)N[C@@H]([C@H](C)CC(=O)O)C(=O)N[C@@H](CC(=O)c2ccccc2N)C(=O)O[C@@H]1C [Daptomycin]
[1]; in vivo
  Suggested maximum dose: 10 to 12 mg/kg/day
[2]; at 4° C.
  Micelles stable and biologically active: 48 hours
[2]
  Micelles stable (Daptomycin: and biologically active): 12 hours
[3]
  Half life: 7 to 10 h
[4]
  Maximum load / loading capacity: 5 mg/mL
[5]
  Diameter of micelles: 5 nm
[6]; pH 4, listed as Dapto micelles
  CMC: 400 μg/ml and 250 μM
[6]; pH 6.5
  Concentration at which molecule remains soluble: 150000 µg/mL

## CC(=O)O[C@@]12CO[C@@H]1C[C@H](O)[C@@]1(C)C(=O)[C@H](O)C3=C(C)[C@@H](OC(=O)[C@H](O)[C@@H](NC(=O)OC(C)(C)C)c4ccccc4)C[C@@](O)([C@@H](OC(=O)c4ccccc4)[C@H]21)C3(C)C [Dtx, Docetaxel]
[7]; [11]
  solubility: 10000 µg/mL (≈ 12.4 mM)
[7]; [12]
  solubility: < 1 µg/mL

## CC(=O)O[C@H]1C(=O)[C@@]2(C)[C@H]([C@H](OC(=O)c3ccccc3)[C@]3(O)C[C@H](OC(=O)[C@H](O)[C@@H](NC(=O)c4ccccc4)c4ccccc4)C(C)=C1C3(C)C)[C@]1(OC(C)=O)CO[C@@H]1C[C@@H]2O [Ptx, Paclitaxel]
HEP-2; Ptx 5 nM
  Cell Death after 24 Hours of Treatment: 10%
HEP-2; Ptx 10 nM
  Cell Death after 24 Hours of Treatment: 25%
HEP-2; Ptx 20 nM
  Cell Death after 24 Hours of Treatment: 40%
HEP-2; Ptx 50 nM
  Cell Death after 24 Hours of Treatment: 90%
HEP-2; in 24 hours up to a concentration of 50 ng/ml
  Killing of tumor cells: complete killing
[7]; [11]
  solubility: 10000 µg/mL (≈ 11.7 mM)
[7]; [12]
  solubility: < 1 µg/mL

## Teicoplanin
[1]; to avoid unwanted side effects or cytotoxicity
  Suggested maximum dose: 20 mg/kg/day
[2]; at 4° C.
  Micelles stable: 35 days
[2]
  Micelles stable (Daptomycin: and biologically active): 48 hours
HEP-2; Teico 5 μM control micelles without Ptx
  Cell Death after 24 Hours of Treatment: 0%
HEP-2; Teicoplanin by itself
  Effect on cells: no effect
[8]
  Loss of molecules of Teicoplanin: about 25%
[9]
  Ptx in Teicoplanin micelles: 2.5 mg/mL
[10]
  CMC: 100 µM
[3]
  Half life: 70 to 100 h
Red blood cells (RBCs)
  Interaction with red blood cells (RBCs): neither Teicoplanin nor Teico-Ptx complex interact with red blood cells
[4]; 4° C.
  Ptx loaded (%): 94%
[4]; 25° C.
  Ptx loaded (%): 96%
[4]; 37° C.
  Ptx loaded (%): 98%
[4]; Dtx or Ptx
  Load capacity compared with Daptomycin: twice
[4]
  Maximum load / loading capacity: 10 mg/mL
[4]; listed as Teicoplanin micelles
  Maximum load / loading capacity: about 10 mg/ml
[4]; Ptx concentration 1 mg/ml
  Ptx in Teicoplanin micelles: 1 mg/mL
[4]; Ptx concentration 5 mg/ml
  Ptx in Teicoplanin micelles: 5 mg/mL
[4]; Ptx concentration 10 mg/ml
  Ptx in Teicoplanin micelles: 10 mg/mL
[4]; Ptx concentration 20 mg/ml
  Ptx in Teicoplanin micelles: 2 mg/mL
[4]; in all conditions (4° C., 25° C. and 37° C.)
  Ptx load: higher than 90%
[5]
  Size larger than Dapto and Dapto-Ptx micelles: 40%
  Diameter of micelles: 8 nm
[5]; DLS, Example 5
  Particle size: 8 nm
  Polydispersity index: 0.017
